The target in one experiment is Estrogen receptor beta (Homo sapiens, UniProt Q92731).
The target in experiment [1] is 5-hydroxytryptamine receptor 7 (Homo sapiens, UniProt P34969).
Experiment [2] concerns the target Epidermal growth factor receptor (Homo sapiens, UniProt P00533). The class given is functional.
Experiment [3] addresses 5-hydroxytryptamine receptor 2A (Homo sapiens, UniProt P28223).
Experiment [4] deals with T1, 5-hydroxytryptamine receptor 1A (Homo sapiens, UniProt P08908).
T1 sequence (P08908 whole entry): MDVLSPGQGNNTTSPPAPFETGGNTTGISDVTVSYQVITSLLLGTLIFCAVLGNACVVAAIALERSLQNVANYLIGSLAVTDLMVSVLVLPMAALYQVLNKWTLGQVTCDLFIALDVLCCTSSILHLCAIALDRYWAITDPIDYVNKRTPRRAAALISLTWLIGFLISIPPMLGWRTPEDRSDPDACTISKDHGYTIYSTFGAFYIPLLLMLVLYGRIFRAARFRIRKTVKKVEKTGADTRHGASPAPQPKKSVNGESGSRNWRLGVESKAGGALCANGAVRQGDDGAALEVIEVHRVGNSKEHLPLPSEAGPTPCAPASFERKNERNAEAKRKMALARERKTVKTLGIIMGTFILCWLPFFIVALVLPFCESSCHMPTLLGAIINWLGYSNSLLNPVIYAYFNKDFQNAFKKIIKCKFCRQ

For experiment [5], the target named is Prostaglandin G/H synthase 1 (Homo sapiens, UniProt P23219). It is filed as functional.
Another experiment addresses T2, Adenosine receptor A3 (Homo sapiens, UniProt P0DMS8).
T2 sequence (P0DMS8 whole entry): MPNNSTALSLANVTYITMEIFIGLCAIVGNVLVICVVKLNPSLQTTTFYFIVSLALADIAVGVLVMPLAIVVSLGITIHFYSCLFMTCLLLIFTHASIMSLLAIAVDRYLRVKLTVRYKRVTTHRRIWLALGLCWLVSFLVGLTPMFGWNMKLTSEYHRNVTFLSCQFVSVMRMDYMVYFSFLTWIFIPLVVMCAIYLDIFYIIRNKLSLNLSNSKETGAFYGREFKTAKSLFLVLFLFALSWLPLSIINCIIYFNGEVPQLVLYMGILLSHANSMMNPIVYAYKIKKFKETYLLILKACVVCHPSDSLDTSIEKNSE

Experiment [6] deals with T3, Muscarinic acetylcholine receptor M1 (Homo sapiens, UniProt P11229).
T3 sequence (P11229 whole entry): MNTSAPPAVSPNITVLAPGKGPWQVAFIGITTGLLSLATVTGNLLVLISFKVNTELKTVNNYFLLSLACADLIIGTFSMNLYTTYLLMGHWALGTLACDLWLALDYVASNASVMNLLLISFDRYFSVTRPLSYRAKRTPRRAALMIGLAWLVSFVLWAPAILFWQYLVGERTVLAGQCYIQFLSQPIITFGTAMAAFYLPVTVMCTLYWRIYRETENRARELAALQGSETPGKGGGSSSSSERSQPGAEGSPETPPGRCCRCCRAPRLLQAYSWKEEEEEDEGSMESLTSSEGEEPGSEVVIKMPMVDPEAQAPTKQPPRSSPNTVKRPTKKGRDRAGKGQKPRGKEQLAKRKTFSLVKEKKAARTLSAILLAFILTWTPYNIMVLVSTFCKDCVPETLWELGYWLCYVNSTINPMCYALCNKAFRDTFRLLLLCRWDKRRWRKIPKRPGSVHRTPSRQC
It is filed as functional, cell-based.

The target of experiment [7] is Hydroxycarboxylic acid receptor 2 (Homo sapiens, UniProt Q8TDS4).
In the next experiment the target is Histamine H1 receptor (Homo sapiens, UniProt P35367). The class given is functional, cell-based.
In experiment [8] the target is Gamma-aminobutyric acid receptor subunit alpha-1/alpha-2/beta-2/gamma-2 (Homo sapiens, UniProt P14867+P47870+P18507+P47869). The class given is functional, cell-based.
In the next experiment the target is T4, Thromboxane A2 receptor (Homo sapiens, UniProt P21731).
T4 sequence (P21731 whole entry): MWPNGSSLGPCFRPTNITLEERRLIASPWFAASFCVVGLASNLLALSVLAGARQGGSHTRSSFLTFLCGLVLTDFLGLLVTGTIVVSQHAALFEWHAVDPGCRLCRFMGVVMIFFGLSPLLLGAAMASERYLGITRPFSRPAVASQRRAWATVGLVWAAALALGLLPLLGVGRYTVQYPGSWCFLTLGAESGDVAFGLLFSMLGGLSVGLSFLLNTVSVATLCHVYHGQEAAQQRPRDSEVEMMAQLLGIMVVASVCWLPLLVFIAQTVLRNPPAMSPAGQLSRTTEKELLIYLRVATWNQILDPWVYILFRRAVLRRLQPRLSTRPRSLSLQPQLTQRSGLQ
The class given is functional, cell-based.

Usually AC50 stands for the concentration giving half of the maximal activity seen.
Note: assay procedure not described here.

Sequence of Prostaglandin G/H synthase 1 (P23219 whole entry): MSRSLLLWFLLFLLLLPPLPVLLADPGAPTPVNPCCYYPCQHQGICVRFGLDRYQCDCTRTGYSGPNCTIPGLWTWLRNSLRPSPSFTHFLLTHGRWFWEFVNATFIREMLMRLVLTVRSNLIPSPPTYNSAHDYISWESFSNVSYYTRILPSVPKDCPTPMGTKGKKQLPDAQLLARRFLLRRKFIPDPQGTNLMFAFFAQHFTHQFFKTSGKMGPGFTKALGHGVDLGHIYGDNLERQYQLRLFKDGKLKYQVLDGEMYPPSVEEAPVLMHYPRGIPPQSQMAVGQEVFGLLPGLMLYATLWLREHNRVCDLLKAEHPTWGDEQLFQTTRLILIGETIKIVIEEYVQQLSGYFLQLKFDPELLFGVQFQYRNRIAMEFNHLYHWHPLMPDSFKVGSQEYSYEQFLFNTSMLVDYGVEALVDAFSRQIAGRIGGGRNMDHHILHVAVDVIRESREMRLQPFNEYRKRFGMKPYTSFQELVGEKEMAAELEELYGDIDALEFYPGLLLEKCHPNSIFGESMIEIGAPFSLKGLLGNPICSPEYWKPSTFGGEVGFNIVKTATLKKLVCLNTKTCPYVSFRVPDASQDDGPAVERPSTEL
Sequence of 5-hydroxytryptamine receptor 2A (P28223 whole entry): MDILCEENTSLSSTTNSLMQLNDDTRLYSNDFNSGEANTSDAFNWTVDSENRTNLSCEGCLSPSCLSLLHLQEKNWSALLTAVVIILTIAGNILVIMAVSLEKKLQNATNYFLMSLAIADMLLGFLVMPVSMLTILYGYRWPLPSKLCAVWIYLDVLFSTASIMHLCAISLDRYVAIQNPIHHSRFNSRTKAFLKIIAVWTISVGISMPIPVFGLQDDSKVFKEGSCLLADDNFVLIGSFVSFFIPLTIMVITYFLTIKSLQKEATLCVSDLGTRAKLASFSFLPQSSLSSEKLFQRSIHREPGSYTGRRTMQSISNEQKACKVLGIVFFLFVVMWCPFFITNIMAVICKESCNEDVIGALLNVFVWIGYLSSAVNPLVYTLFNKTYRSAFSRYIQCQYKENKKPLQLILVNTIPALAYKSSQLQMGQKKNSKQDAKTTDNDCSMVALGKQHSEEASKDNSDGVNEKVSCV
Sequence of Histamine H1 receptor (P35367 whole entry): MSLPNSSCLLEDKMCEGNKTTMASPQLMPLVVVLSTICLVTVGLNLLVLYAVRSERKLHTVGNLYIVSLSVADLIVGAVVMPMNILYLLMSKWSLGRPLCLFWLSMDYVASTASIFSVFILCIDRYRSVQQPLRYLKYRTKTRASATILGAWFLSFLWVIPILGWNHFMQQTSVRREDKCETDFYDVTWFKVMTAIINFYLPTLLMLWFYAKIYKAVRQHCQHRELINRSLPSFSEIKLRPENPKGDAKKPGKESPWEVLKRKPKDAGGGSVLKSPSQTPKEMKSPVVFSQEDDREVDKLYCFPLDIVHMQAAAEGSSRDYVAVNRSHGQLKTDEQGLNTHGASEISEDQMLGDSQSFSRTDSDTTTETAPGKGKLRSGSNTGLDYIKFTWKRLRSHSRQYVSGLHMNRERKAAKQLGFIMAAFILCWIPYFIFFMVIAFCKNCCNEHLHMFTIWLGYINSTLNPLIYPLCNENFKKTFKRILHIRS
Sequence of Gamma-aminobutyric acid receptor subunit alpha-1/alpha-2/beta-2/gamma-2 (P14867 whole entry): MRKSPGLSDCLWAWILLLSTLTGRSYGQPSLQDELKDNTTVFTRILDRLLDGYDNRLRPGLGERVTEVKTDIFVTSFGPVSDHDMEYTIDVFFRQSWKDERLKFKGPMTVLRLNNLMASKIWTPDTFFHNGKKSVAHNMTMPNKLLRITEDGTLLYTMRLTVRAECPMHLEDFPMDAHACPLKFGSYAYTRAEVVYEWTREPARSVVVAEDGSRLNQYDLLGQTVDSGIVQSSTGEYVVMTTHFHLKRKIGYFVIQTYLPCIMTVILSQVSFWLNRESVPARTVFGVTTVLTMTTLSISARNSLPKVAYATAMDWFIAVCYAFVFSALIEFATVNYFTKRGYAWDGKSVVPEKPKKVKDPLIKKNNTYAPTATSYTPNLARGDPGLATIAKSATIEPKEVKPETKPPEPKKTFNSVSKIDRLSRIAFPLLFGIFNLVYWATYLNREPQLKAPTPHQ
Sequence of Gamma-aminobutyric acid receptor subunit alpha-1/alpha-2/beta-2/gamma-2 (P47870 whole entry): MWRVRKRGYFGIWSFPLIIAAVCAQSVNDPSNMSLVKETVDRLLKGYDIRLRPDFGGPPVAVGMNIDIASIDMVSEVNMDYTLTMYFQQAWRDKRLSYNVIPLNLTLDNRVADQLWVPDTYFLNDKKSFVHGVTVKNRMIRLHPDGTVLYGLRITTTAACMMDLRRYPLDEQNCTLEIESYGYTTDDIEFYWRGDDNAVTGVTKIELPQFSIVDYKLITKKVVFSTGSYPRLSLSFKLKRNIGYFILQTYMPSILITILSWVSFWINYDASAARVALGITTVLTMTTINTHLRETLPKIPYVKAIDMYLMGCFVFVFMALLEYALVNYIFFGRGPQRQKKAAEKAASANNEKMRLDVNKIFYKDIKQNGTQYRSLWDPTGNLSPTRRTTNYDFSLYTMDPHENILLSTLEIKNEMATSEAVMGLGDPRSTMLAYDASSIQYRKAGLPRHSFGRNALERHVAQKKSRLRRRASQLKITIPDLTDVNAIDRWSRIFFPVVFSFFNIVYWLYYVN
Sequence of Gamma-aminobutyric acid receptor subunit alpha-1/alpha-2/beta-2/gamma-2 (P18507 whole entry): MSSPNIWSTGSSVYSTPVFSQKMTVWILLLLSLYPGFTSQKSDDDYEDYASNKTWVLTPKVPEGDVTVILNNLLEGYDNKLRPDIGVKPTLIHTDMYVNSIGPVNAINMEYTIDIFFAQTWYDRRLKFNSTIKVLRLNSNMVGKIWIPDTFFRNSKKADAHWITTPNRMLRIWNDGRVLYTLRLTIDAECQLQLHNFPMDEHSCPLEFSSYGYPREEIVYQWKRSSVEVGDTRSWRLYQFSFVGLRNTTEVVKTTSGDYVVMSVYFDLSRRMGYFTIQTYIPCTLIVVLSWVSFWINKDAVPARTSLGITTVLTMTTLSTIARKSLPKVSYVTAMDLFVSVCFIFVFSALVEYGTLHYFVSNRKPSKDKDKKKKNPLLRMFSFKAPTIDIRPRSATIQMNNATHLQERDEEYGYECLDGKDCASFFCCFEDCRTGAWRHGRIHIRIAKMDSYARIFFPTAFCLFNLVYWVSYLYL
Sequence of Gamma-aminobutyric acid receptor subunit alpha-1/alpha-2/beta-2/gamma-2 (P47869 whole entry): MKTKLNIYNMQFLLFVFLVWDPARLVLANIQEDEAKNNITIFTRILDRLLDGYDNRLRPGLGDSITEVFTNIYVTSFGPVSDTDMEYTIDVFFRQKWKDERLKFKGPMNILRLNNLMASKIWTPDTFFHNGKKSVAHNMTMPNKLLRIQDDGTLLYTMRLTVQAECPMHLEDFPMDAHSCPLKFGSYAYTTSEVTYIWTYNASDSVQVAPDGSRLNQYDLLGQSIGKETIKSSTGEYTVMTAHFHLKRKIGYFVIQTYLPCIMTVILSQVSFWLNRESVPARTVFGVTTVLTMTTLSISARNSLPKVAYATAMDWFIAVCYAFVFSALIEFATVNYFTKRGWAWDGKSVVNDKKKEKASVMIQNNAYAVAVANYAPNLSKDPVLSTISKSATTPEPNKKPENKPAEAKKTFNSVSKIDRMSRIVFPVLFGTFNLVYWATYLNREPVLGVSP
Sequence of Hydroxycarboxylic acid receptor 2 (Q8TDS4 whole entry): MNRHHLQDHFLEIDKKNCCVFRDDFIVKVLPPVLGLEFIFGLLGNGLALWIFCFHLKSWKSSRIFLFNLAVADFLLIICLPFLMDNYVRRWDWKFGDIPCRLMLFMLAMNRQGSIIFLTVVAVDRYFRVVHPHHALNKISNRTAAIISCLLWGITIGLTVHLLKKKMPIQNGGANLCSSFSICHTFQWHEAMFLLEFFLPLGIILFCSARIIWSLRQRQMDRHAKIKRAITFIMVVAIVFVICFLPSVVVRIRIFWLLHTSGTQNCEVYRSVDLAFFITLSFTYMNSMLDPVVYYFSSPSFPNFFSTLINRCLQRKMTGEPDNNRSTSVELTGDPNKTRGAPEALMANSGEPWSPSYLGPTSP
Sequence of Epidermal growth factor receptor (P00533 whole entry): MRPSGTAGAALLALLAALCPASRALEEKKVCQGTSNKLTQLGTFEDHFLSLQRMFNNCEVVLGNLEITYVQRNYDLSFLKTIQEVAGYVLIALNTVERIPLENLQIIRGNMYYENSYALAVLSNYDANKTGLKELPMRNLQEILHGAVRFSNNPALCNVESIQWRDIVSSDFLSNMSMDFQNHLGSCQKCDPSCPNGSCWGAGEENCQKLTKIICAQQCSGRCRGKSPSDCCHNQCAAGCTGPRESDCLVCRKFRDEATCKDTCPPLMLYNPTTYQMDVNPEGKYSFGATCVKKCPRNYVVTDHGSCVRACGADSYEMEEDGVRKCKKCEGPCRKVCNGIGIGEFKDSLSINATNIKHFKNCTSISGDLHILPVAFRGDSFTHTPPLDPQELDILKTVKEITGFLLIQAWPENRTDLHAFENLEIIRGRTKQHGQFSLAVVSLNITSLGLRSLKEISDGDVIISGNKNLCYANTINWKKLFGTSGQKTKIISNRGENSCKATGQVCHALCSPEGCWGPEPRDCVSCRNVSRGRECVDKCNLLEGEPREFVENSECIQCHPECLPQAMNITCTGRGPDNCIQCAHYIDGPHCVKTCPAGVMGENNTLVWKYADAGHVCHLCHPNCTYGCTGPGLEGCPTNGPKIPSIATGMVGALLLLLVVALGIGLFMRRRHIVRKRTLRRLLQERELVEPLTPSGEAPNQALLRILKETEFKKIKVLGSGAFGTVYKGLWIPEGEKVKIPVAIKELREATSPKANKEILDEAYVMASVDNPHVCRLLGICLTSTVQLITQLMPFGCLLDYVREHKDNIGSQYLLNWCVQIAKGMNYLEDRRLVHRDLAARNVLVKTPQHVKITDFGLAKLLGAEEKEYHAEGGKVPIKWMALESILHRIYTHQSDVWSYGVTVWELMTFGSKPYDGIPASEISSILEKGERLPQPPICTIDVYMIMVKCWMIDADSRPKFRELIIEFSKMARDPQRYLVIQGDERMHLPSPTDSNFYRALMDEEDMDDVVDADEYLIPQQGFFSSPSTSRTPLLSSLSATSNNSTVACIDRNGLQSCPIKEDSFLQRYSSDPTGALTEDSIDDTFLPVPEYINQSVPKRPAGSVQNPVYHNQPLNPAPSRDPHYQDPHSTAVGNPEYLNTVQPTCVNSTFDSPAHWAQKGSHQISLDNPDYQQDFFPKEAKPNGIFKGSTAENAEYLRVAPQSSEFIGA

For `Cc1c(OCC(F)(F)F)ccnc1C[S+]([O-])c1nc2ccccc2[nH]1` (configuration not stated) [LANSOPRAZOLE], the half-maximal activity concentration (AC50) at Estrogen receptor beta is more than 30 µM; in experiment [1], more than 10 µM. Compound `CC(CC1c2ccccc2CCc2ccccc21)CN(C)C` (configuration not stated) [BUTRIPTYLINE] returned a half-maximal activity concentration (AC50) in [2] of more than 30 µM.

As to `Cc1nnc2n1-c1ccc(Cl)cc1C(c1ccccc1Cl)=NC2` [TRIAZOLAM], the activity in experiment [3] was half-maximal at 3.2 µM (AC50). As to `CO[C@]12C[C@@H](COC(=O)c3cncc(Br)c3)CN(C)[C@@H]1Cc1cn(C)c3cccc2c13` [NICERGOLINE], the AC50 is 0.003 µM in experiment [4], more than 30 µM in experiment [5], 22.4 µM at Adenosine receptor A3 and 1.86 µM in experiment [6].

With `COc1cccc(C2(O)CCCCC2CN(C)C)c1` (configuration not stated) [TRAMADOL], in [7], the AC50 is more than 10 µM. At Histamine H1 receptor, `NC(=O)CN1CC(O)CC1=O` (configuration not stated) [OXIRACETAM] registered a concentration at half-maximal activity (AC50) of more than 30 µM. With THIMEROSAL, the half-maximal activity concentration (AC50) in [8] was more than 30 µM; at Thromboxane A2 receptor it was more than 10 µM.

Source of the values: ChEMBL document CHEMBL5291721, “A preclinical secondary pharmacology resource illuminates target-adverse drug reaction associations of marketed drugs” (Nat Commun, 2023).
